From patent US12139492B2 (Endotarget Inc., priority 2021, dated 2024)
Where two headings read alike, the source gives them in different places.

Assays:
BTK = BTK (Homo sapiens, UniProt Q06187); experiment: Degradation of BTK protein in Namalwa cells (Western blot; DC50, Dmax); settings: for DC50: cell line not given
JeKo-1 cells = experiment: Antiproliferative effect, MTS cell viability assay, JeKo-1 cells; format: cell-based; settings: Homo sapiens; JeKo-1 mantle cell lymphoma cells; read-out: IC50 (anti-proliferation) JeKO-1 cells
In short: (§1)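 Absorbance at 490 nm of formazan, formed by metabolically active cells from MTS tetrazolium, served as the viability measure after a 72 h treatment across a 0.001–10 μM concentration series plus untreated control.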

Mino cells = experiment: Antiproliferative effect, MTS cell viability assay, Mino cells; format: cell-based; settings: Homo sapiens, MINO, Mino mantle cell lymphoma cells; read-out: IC50 (anti-proliferation) Mino cells
In short: as §1

[1] = read-out: DC50 (BTK degradation), concentration giving 50% reduction of BTK expression level
[2] = read-out: Dmax (BTK degradation)

Sequence of BTK (Q06187 whole entry): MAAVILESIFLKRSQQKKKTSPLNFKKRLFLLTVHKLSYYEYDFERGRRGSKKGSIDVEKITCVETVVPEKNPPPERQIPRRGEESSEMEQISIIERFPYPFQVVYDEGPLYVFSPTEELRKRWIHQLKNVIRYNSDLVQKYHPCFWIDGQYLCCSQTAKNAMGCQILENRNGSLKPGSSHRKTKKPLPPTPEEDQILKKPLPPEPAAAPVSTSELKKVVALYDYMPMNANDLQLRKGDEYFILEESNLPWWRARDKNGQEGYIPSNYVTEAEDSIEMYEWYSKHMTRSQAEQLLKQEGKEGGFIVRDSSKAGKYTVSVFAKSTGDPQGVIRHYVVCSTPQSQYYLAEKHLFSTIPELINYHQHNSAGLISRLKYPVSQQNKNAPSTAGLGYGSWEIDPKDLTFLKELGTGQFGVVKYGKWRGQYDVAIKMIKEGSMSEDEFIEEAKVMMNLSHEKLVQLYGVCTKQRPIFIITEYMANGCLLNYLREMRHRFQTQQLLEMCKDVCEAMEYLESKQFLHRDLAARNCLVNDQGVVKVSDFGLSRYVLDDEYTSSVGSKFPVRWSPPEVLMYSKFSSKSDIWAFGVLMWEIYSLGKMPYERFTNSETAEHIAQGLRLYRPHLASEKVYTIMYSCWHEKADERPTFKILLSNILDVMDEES

SMILES	DC50 (BTK; [1]) [µM]	Dmax (BTK; [2]) [%]	IC50 (JeKo-1 cells) [µM]	IC50 (Mino cells) [µM]	Dmax (BTK) [%]	DC50 (BTK; BTK degradation) [µM]	degradation of BTK protein (BTK; Namalwa B lymphocyte cells, various concentrations, 24 hours, Western blot)
Nc1ncnc2c1c(-c1ccc(Oc3ccccc3)cc1)nn2C1CCN(CCN2CCN(CCCSc3ccc4c(c3)CN(C3CCC(=O)NC3=O)C4=O)CC2)CC1 (stereo not drawn) [Compound 468]	< 0.01	> 90	1 to 10	1 to 10			
NC(=O)c1c(-c2ccc(Oc3ccccc3)cc2)nn2c1NCCC2C1CCN(C(=O)N2CCN(CCC3CCN(c4ccc5c(c4)C(=O)N(C4CCC(=O)NC4=O)C5=O)CC3)CC2)CC1 (stereo not drawn) [Compound 283, 7-(1-(4-(2-(1-(2-(2,6-dioxopiperidin-3-yl)-1,3-dioxoisoindolin-5-yl)piperidin-4-yl)ethyl)piperazine-1-carbonyl)piperidin-4-yl)-2-(4-phenoxyphenyl)-4,5,6,7-tetrahydropyrazolo[1,5-a]pyrimidine-3-carboxamide]			> 10	1 to 10	> 75	0.01 to 0.05	
Nc1ncnc2c1c(-c1ccc(Oc3ccccc3)cc1)nn2C1CCN(C2CCN(C(=O)N3CCC(N4CCC(c5ccc6c(c5)CN(C5CCC(=O)NC5=O)C6=O)CC4)CC3)CC2)CC1 (stereo not drawn) [Compound 236, 3-(5-(1′-(4-(4-amino-3-(4-phenoxyphenyl)-1H-pyrazolo[3,4-d]pyrimidin-1-yl)-[1,4′-bipiperidine]-1′-carbonyl)-[1,4′-bipiperidin]-4-yl)-1-oxoisoindolin-2-yl)piperidine-2,6-dione]			1 to 10	1 to 10	> 90	0.01 to 0.05	
Nc1ncnc2c1c(-c1ccc(Oc3ccccc3)cc1)nn2C1CCN(C2CCN(C(=O)N3CCC(CCN4CCN(c5ccc6c(c5)C(=O)N(C5CCC(=O)NC5=O)C6=O)CC4)CC3)CC2)CC1 (stereo not drawn) [Compound 251, 5-(4-(2-(1-(4-(4-amino-3-(4-phenoxyphenyl)-1H-pyrazolo[3,4-d]pyrimidin-1-yl)-[1,4′-bipiperidine]-1′-carbonyl)piperidin-4-yl)ethyl)piperazin-1-yl)-2-(2,6-dioxopiperidin-3-yl)isoindoline-1,3-dione]			1 to 10	< 1	> 90	0.01 to 0.05	
Nc1ncnc2c1c(-c1ccc(Oc3ccccc3)cc1)nn2C1CCN(CC2CCN(/C=C\C(=O)CN3CCN(c4ccc5c(c4)CN(C4CCC(=O)NC4=O)C5=O)CC3)CC2)CC1 (stereo not drawn) [Compound 421, (Z)-3-(5-(4-(4-(4-((4-(4-amino-3-(4-phenoxyphenyl)-1H-pyrazolo[3,4-d]pyrimidin-1-yl)piperidin-1-yl)methyl)piperidin-1-yl)-2-oxobut-3-en-1-yl)piperazin-1-yl)-1-oxoisoindolin-2-yl)piperidine-2,6-dione]	< 0.01	> 90	1 to 10	1 to 10			dose-dependent degradation
Nc1ncnc2c1c(-c1ccc(Oc3ccccc3)cc1)nn2C1CCN(C2CCN(C(=O)N3CCC(CN4CCC(c5ccc6c(c5)CN(C5CCC(=O)NC5=O)C6=O)CC4)CC3)CC2)CC1 (stereo not drawn) [Compound 244, 3-(5-(1-((1-(4-(4-amino-3-(4-phenoxyphenyl)-1H-pyrazolo[3,4-d]pyrimidin-1-yl)-[1,4′-bipiperidine]-1′-carbonyl)piperidin-4-yl)methyl)piperidin-4-yl)-1-oxoisoindolin-2-yl)piperidine-2,6-dione]			1 to 10	1 to 10	> 90	< 0.01	
NC(=O)c1c(-c2ccc(Oc3ccccc3)cc2)nn2c1NCCC2C1CCN(C(=O)N2CCN(CC3CCN(c4ccc5c(c4)CN(C4CCC(=O)NC4=O)C5=O)CC3)CC2)CC1 (stereo not drawn) [Compound 274, 7-(1-(4-((1-(2-(2,6-dioxopiperidin-3-yl)-1-oxoisoindolin-5-yl)piperidin-4-yl)methyl)piperazine-1-carbonyl)piperidin-4-yl)-2-(4-phenoxyphenyl)-4,5,6,7-tetrahydropyrazolo[1,5-a]pyrimidine-3-carboxamide]			< 1	< 1	> 90	< 0.01	
Nc1ncnc2c1c(-c1ccc(Oc3ccccc3)cc1)nn2C1CCN(C2CCN(CCC3CCN(c4ccc5c(c4)CN(C4CCC(=O)NC4=O)C5=O)CC3)CC2)CC1 (stereo not drawn) [Compound 216, 3-(5-(4-(2-(4-(4-amino-3-(4-phenoxyphenyl)-1H-pyrazolo[3,4-d]pyrimidin-1-yl)-[1,4′-bipiperidin]-1′-yl)ethyl)piperidin-1-yl)-1-oxoisoindolin-2-yl)piperidine-2,6-dione]			< 1	< 1	> 75	0.01 to 0.05	
NC(=O)c1c(-c2ccc(Oc3ccccc3)cc2)nn2c1NCCC2C1CCN(C2CCN(C(=O)N3CCN(C4CCN(c5ccc6c(c5)C(=O)N(C5CCC(=O)NC5=O)C6=O)CC4)CC3)CC2)CC1 (stereo not drawn) [Compound 345, 7-(1′-(4-(1-(2-(2,6-dioxopiperidin-3-yl)-1,3-dioxoisoindolin-5-yl)piperidin-4-yl)piperazine-1-carbonyl)-[1,4′-bipiperidin]-4-yl)-2-(4-phenoxyphenyl)-4,5,6,7-tetrahydropyrazolo[1,5-a]pyrimidine-3-carboxamide]			1 to 10	1 to 10	> 90	< 0.01	
NC(=O)c1c(-c2ccc(Oc3ccccc3)cc2)nn2c1NCC[C@H]2C1CCN(CC2CCN(C(=O)N3CCC(N4CCC(c5ccc6c(c5)C(=O)N(C5CCC(=O)NC5=O)C6=O)CC4)CC3)CC2)CC1 (stereo partly drawn) [Compound 407, (7S)-7-(1-((1-(4-(2-(2,6-dioxopiperidin-3-yl)-1,3-dioxoisoindolin-5-yl)-[1,4′-bipiperidine]-1′-carbonyl)piperidin-4-yl)methyl)piperidin-4-yl)-2-(4-phenoxyphenyl)-4,5,6,7-tetrahydropyrazolo[1,5-a]pyrimidine-3-carboxamide]	0.01 to 0.05	> 75	> 10	1 to 10			
NC(=O)c1c(-c2ccc(Oc3ccccc3)cc2)nn2c1NCC[C@H]2C1CCN(CC2CCN(C(=O)N3CCN(C4CCN(c5ccc6c(c5)C(=O)N(C5CCC(=O)NC5=O)C6=O)CC4)CC3)CC2)CC1 (stereo partly drawn) [Compound 401]	0.01 to 0.05	> 90	1 to 10	1 to 10			
NC(=O)c1c(-c2ccc(Oc3ccccc3)cc2)nn2c1NCC[C@H]2C1CCN(CC2CCN(CCN3CCC(c4ccc5c(c4)C(=O)N(C4CCC(=O)NC4=O)C5=O)CC3)CC2)CC1 (stereo partly drawn) [Compound 335, (7S)-7-(1-((1-(2-(4-(2-(2,6-dioxopiperidin-3-yl)-1,3-dioxoisoindolin-5-yl)piperidin-1-yl)ethyl)piperidin-4-yl)methyl)piperidin-4-yl)-2-(4-phenoxyphenyl)-4,5,6,7-tetrahydropyrazolo[1,5-a]pyrimidine-3-carboxamide]			1 to 10	1 to 10	> 75	> 0.05	
Nc1ncnc2c1c(-c1ccc(Oc3ccccc3)cc1)nn2C1CCN(CCN2CCC(CN3CCN(c4ccc(NC5CCC(=O)NC5=O)cc4)CC3)CC2)CC1 (stereo not drawn) [Compound 558, 3-((4-(4-((1-(2-(4-(4-amino-3-(4-phenoxyphenyl)-1H-pyrazolo[3,4-d]pyrimidin-1-yl)piperidin-1-yl)ethyl)piperidin-4-yl)methyl)piperazin-1-yl)phenyl)amino)piperidine-2,6-dione]	< 0.01	> 90	< 1	< 1			
Nc1ncnc2c1c(-c1ccc(Oc3ccccc3)cc1)nn2C1CCN(CC2CCN(CCN3CCC(c4ccc5c(c4)CN(C4CCC(=O)NC4=O)C5=O)CC3)CC2)CC1 (stereo not drawn) [Compound 206, 3-(5-(1-(2-(4-((4-(4-amino-3-(4-phenoxyphenyl)-1H-pyrazolo[3,4-d]pyrimidin-1-yl)piperidin-1-yl)methyl)piperidin-1-yl)ethyl)piperidin-4-yl)-1-oxoisoindolin-2-yl)piperidine-2,6-dione]			< 1	< 1	> 90	0.01 to 0.05	
Nc1ncnc2c1c(-c1ccc(Oc3ccccc3)cc1)nn2C1CCN(CCN2CCC(CC3CCN(c4ccc(NC5CCC(=O)NC5=O)cc4)CC3)CC2)CC1 (stereo not drawn) [Compound 559, 3-((4-(4-((1-(2-(4-(4-amino-3-(4-phenoxyphenyl)-1H-pyrazolo[3,4-d]pyrimidin-1-yl)piperidin-1-yl)ethyl)piperidin-4-yl)methyl)piperidin-1-yl)phenyl)amino)piperidine-2,6-dione]	< 0.01	> 90	< 1	< 1			
NC(=O)c1c(-c2ccc(Oc3ccccc3)cc2)nn2c1NCCC2C1CCN(CC2CCN(C(=O)N3CCN(C4CCN(c5ccc6c(c5)CN(C5CCC(=O)NC5=O)C6=O)CC4)CC3)CC2)CC1 (stereo not drawn) [Compound 362, 7-(1-((1-(4-(1-(2-(2,6-dioxopiperidin-3-yl)-1-oxoisoindolin-5-yl)piperidin-4-yl)piperazine-1-carbonyl)piperidin-4-yl)methyl)piperidin-4-yl)-2-(4-phenoxyphenyl)-4,5,6,7-tetrahydropyrazolo[1,5-a]pyrimidine-3-carboxamide]			1 to 10	1 to 10	> 90	< 0.01	
Nc1ncnc2c1c(-c1ccc(Oc3ccccc3)cc1)nn2C1CCN(C2CCN(C(=O)N3CCC(CC4CCN(c5ccc6c(c5)C(=O)N(C5CCC(=O)NC5=O)C6=O)CC4)CC3)CC2)CC1 (stereo not drawn) [Compound 237, 5-(4-((1-(4-(4-amino-3-(4-phenoxyphenyl)-1H-pyrazolo[3,4-d]pyrimidin-1-yl)-[1,4′-bipiperidine]-1′-carbonyl)piperidin-4-yl)methyl)piperidin-1-yl)-2-(2,6-dioxopiperidin-3-yl)isoindoline-1,3-dione]			1 to 10	< 1	> 90	0.01 to 0.05	
